Key:
Test in all cases: relative viability (nuclei count vs DMSO), 5 days (fraction); higher = more cells survive
[1] = compound: O=C(Nc1cc(C(F)(F)F)cc(C(F)(F)F)c1)c1cc(Cl)ccc1O [IMD-0354] + Cc1nc(NC(=O)N2CCC[C@H]2C(N)=O)sc1-c1ccnc(C(C)(C)C(F)(F)F)c1 [Alpelisib] (partner 2 µM)
Method in brief: (§1)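 Dosing by pin tool came one day after lung cancer cell lines were seeded in 1536-well plates, using either one drug or a fixed anchor-drug dose plus five library-drug doses (not always all listed) in √10 steps. After 5 days, nuclei were counted on 4× images. Relative viability is treated-well nuclei count divided by vehicle-well nuclei count, and values are medians of duplicate plates.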

[2] = compound: Cc1cnc(CNC(=O)c2c(=O)c3ccc(N4CCCN(C)CC4)nc3n3c2sc2ccccc23)cn1 [CX-5461] + CC(C)C[C@H](NC(=O)[C@H](Cc1ccccc1)NC(=O)c1cnccn1)B(O)O [Bortezomib] (partner 0.002 µM)
Method in brief: as §1

[3] = compound: Cc1cnc(CNC(=O)c2c(=O)c3ccc(N4CCCN(C)CC4)nc3n3c2sc2ccccc23)cn1 [CX-5461] + C[C@]1(O)C[C@@H](c2nc(-c3ccc4ccc(-c5ccccc5)nc4c3)c3c(N)nccn32)C1 [Linsitinib] (partner 1 µM)
Method in brief: as §1

[4] = compound: Cc1cnc(CNC(=O)c2c(=O)c3ccc(N4CCCN(C)CC4)nc3n3c2sc2ccccc23)cn1 [CX-5461] + CC1(C)CCC(c2ccc(Cl)cc2)=C(CN2CCN(c3ccc(C(=O)NS(=O)(=O)c4ccc(N[C@H](CCN5CCOCC5)CSc5ccccc5)c(S(=O)(=O)C(F)(F)F)c4)cc3)CC2)C1 [Navitoclax] (partner 0.5 µM)
Method in brief: as §1

UMC-11
relative viability ([1]; first compound 0.04 µM): 0.945
relative viability ([1]; first compound 0.1265 µM): 0.973
relative viability ([1]; first compound 0.4 µM): 0.598
relative viability ([1]; first compound 1.265 µM): 0.235
relative viability ([1]; first compound 4 µM): 0.281
relative viability ([2]; first compound 0.01 µM): 1.01
relative viability ([2]; first compound 0.03162 µM): 0.707
relative viability ([2]; first compound 0.1 µM): 0.514
relative viability ([2]; first compound 0.3162 µM): 0.797
relative viability ([2]; first compound 1 µM): 0.198
relative viability ([3]; first compound 0.01 µM): 0.907
relative viability ([3]; first compound 0.03162 µM): 1.07
relative viability ([3]; first compound 0.1 µM): 1.02
relative viability ([3]; first compound 0.3162 µM): 0.92
relative viability ([3]; first compound 1 µM): 0.807
relative viability ([4]; first compound 0.01 µM): 0.319
relative viability ([4]; first compound 0.03162 µM): 0.294
relative viability ([4]; first compound 0.1 µM): 0.302
relative viability ([4]; first compound 0.3162 µM): 0.282
relative viability ([4]; first compound 1 µM): 0.23

From the supplement of paper PMC10307832
